Target: HSD17B13 (Homo sapiens (Human), UniProt Q7Z5P4)
Experiment: HSD17B13 enzymatic inhibition assay (150 nM or 50 nM HSD17B13)
Format: biochemical
Conditions: 50 nM HSD17B13; read-out: Inhibition of 50 nM of HSD17B13 IC50

Sequence of HSD17B13 (Q7Z5P4 other isoform, or with tags, fused parts or gaps): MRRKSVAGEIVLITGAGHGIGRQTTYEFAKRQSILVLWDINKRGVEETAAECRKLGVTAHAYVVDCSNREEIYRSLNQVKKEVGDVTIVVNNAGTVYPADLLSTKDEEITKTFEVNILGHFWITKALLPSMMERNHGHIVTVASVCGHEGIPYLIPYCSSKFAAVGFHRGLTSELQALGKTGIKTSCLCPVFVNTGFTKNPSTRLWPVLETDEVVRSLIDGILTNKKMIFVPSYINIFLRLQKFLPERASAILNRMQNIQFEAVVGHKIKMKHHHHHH

Compound | IC50 [nM]
Cc1ccc(C(NC(=O)c2c(C)cc(C(F)(F)F)[nH]c2=O)c2ccccc2)cc1 (stereo not shown) [Compound 126, 4-methyl-2-oxo-N-(phenyl(p-tolyl)methyl)-6-(trifluoromethyl)-1,2-dihydropyridine-3-carboxamide] | 1750
O=C(NC1CCOc2ccccc21)c1ccc(C(F)(F)F)[nH]c1=O (stereo not shown) [Compound 128, N-(chroman-4-yl)-2-oxo-6-(trifluoromethyl)-1,2-dihydropyridine-3-carboxamide] | 5690
O=C(NC1CCNc2ccccc21)c1ccc(C(F)(F)F)[nH]c1=O (stereo not shown) [Compound 130, 2-oxo-N-(1,2,3,4-tetrahydroquinolin-4-yl)-6-(trifluoromethyl)-1,2-dihydropyridine-3-carboxamide] | > 10000
O=C(NC1CCc2cc(Cl)ccc21)c1ccc(C(F)(F)F)[nH]c1=O (stereo not shown) [Compound 131, N-(5-chloro-2,3-dihydro-1H-inden-1-yl)-2-oxo-6-(trifluoromethyl)-1,2-dihydropyridine-3-carboxamide] | 1820
Cc1ccc2c(c1)CCC2NC(=O)c1ccc(C(F)(F)F)[nH]c1=O (stereo not shown) [Compound 133, N-(5-methyl-2,3-dihydro-1H-inden-1-yl)-2-oxo-6-(trifluoromethyl)-1,2-dihydropyridine-3-carboxamide] | 1450
O=C(NC1CCc2cc(O)ccc21)c1ccc(C(F)(F)F)[nH]c1=O (stereo not shown) [Compound 135, N-(5-hydroxy-2,3-dihydro-1H-inden-1-yl)-2-oxo-6-(trifluoromethyl)-1,2-dihydropyridine-3-carboxamide] | 1910
O=C(NC1CCc2c(O)cccc21)c1ccc(C(F)(F)F)[nH]c1=O (stereo not shown) [Compound 136, N-(4-hydroxy-2,3-dihydro-1H-inden-1-yl)-2-oxo-6-(trifluoromethyl)-1,2-dihydropyridine-3-carboxamide] | 1130
CCc1ccc2c(c1)Oc1cc(CC)ccc1C2NC(=O)c1ccc(C(F)(F)F)[nH]c1=O [Compound 143, N-(3,6-diethyl-9H-xanthen-9-yl)-2-oxo-6-(trifluoromethyl)-1,2-dihydropyridine-3-carboxamide] | 90
O=C(NC1c2ccc(CC(F)(F)F)cc2Oc2cc(CC(F)(F)F)ccc21)c1ccc(C(F)(F)F)[nH]c1=O [Compound 144, N-(3,6-bis(2,2,2-trifluoroethyl)-9H-xanthen-9-yl)-2-oxo-6-(trifluoromethyl)-1,2-dihydropyridine-3-carboxamide] | 310
Cc1ccc2c(c1)C(NC(=O)c1ccc(C(F)(F)F)[nH]c1=O)c1ccccc1O2 (stereo not shown) [Compound 148, N-(2-methyl-9H-xanthen-9-yl)-2-oxo-6-(trifluoromethyl)-1,2-dihydropyridine-3-carboxamide] | 670
Cc1ccc2c(c1)Oc1cc(C)ccc1C2NC(=O)c1ccc(C)[nH]c1=O [Compound 149, N-(3,6-dimethyl-9H-xanthen-9-yl)-6-methyl-2-oxo-1,2-dihydropyridine-3-carboxamide] | > 10000
O=C(NC1c2ccccc2Oc2cc(C3CCC3)ccc21)c1ccc(C(F)(F)F)[nH]c1=O (stereo not shown) [Compound 151, N-(3-cyclobutyl-9H-xanthen-9-yl)-2-oxo-6-(trifluoromethyl)-1,2-dihydropyridine-3-carboxamide] | 290
O=C(NC1c2ccccc2Oc2c(Cl)cccc21)c1ccc(C(F)(F)F)[nH]c1=O (stereo not shown) [Compound 152, N-(4-chloro-9H-xanthen-9-yl)-2-oxo-6-(trifluoromethyl)-1,2-dihydropyridine-3-carboxamide] | 1030
N#Cc1ccc2c(c1)C(NC(=O)c1ccc(C(F)(F)F)[nH]c1=O)c1ccccc1O2 (stereo not shown) [Compound 154, N-(2-cyano-9H-xanthen-9-yl)-2-oxo-6-(trifluoromethyl)-1,2-dihydropyridine-3-carboxamide] | 650
O=C(NC1c2ccccc2Oc2cccc(F)c21)c1ccc(C(F)(F)F)[nH]c1=O (stereo not shown) [Compound 156, N-(1-fluoro-9H-xanthen-9-yl)-2-oxo-6-(trifluoromethyl)-1,2-dihydropyridine-3-carboxamide] | 260
Cc1cccc2c1C(NC(=O)c1ccc(C(F)(F)F)[nH]c1=O)c1ccccc1O2 (stereo not shown) [Compound 157, N-(1-methyl-9H-xanthen-9-yl)-2-oxo-6-(trifluoromethyl)-1,2-dihydropyridine-3-carboxamide] | 850
CCc1ccc2c(c1)C(NC(=O)c1ccc(C(F)(F)F)[nH]c1=O)c1ccccc1O2 (stereo not shown) [Compound 160, N-(2-ethyl-9H-xanthen-9-yl)-2-oxo-6-(trifluoromethyl)-1,2-dihydropyridine-3-carboxamide] | 180
CCc1ccc2c(c1)Oc1ccccc1C2NC(=O)c1ccc(C(F)(F)F)[nH]c1=O (stereo not shown) [Compound 162, N-(3-ethyl-9H-xanthen-9-yl)-2-oxo-6-(trifluoromethyl)-1,2-dihydropyridine-3-carboxamide] | 80
CCc1cccc2c1C(NC(=O)c1ccc(C(F)(F)F)[nH]c1=O)c1ccccc1O2 (stereo not shown) [Compound 163, N-(1-ethyl-9H-xanthen-9-yl)-2-oxo-6-(trifluoromethyl)-1,2-dihydropyridine-3-carboxamide] | 840

The next lines start with the values.

IC50 [nM] | Compound
960 | Cc1cc(C(F)(F)F)[nH]c(=O)c1C(=O)NC(c1ccccc1)c1ccc(CC(F)(F)F)cc1 (stereo not shown) [Compound 125, 4-methyl-2-oxo-N-(phenyl(4-(2,2,2-trifluoroethyl)phenyl)methyl)-6-(trifluoromethyl)-1,2-dihydropyridine-3-carboxamide]
3750 | O=C(NC1CCSc2ccccc21)c1ccc(C(F)(F)F)[nH]c1=O (stereo not shown) [Compound 127, 2-oxo-N-(thiochroman-4-yl)-6-(trifluoromethyl)-1,2-dihydropyridine-3-carboxamide]
4330 | CC1CC(NC(=O)c2ccc(C(F)(F)F)[nH]c2=O)c2ccccc2O1 (stereo not shown) [Compound 129, N-(2-methylchroman-4-yl)-2-oxo-6-(trifluoromethyl)-1,2-dihydropyridine-3-carboxamide]
1450 | O=C(NC1CCCc2ccccc21)c1ccc(C(F)(F)F)[nH]c1=O (stereo not shown) [Compound 132, 2-oxo-N-(1,2,3,4-tetrahydronaphthalen-1-yl)-6-(trifluoromethyl)-1,2-dihydropyridine-3-carboxamide]
4190 | O=C(NC1c2ccccc2COc2ccccc21)c1ccc(C(F)(F)F)[nH]c1=O (stereo not shown) [Compound 137, N-(6,11-dihydrodibenzo[b,e]oxepin-11-yl)-2-oxo-6-(trifluoromethyl)-1,2-dihydropyridine-3-carboxamide]
510 | C=Cc1ccc2c(c1)Oc1cccc(C=C)c1C2NC(=O)c1ccc(C(F)(F)F)[nH]c1=O (stereo not shown) [Compound 139, N-(1,6-divinyl-9H-xanthen-9-yl)-2-oxo-6-(trifluoromethyl)-1,2-dihydropyridine-3-carboxamide]
540 | CCc1ccc2c(c1)Oc1cccc(CC)c1C2NC(=O)c1ccc(C(F)(F)F)[nH]c1=O (stereo not shown) [Compound 142, N-(1,6-diethyl-9H-xanthen-9-yl)-2-oxo-6-(trifluoromethyl)-1,2-dihydropyridine-3-carboxamide]
210 | O=C(NC1c2ccc(C3CC3)cc2Oc2cc(C3CC3)ccc21)c1ccc(C(F)(F)F)[nH]c1=O [Compound 145, N-(3,6-dicyclopropyl-9H-xanthen-9-yl)-2-oxo-6-(trifluoromethyl)-1,2-dihydropyridine-3-carboxamide]
> 10000 | Cc1ccc2c(c1)Oc1cccc(C)c1C2NC(=O)c1ccc(C)[nH]c1=O (stereo not shown) [Compound 147, N-(1,6-dimethyl-9H-xanthen-9-yl)-6-methyl-2-oxo-1,2-dihydropyridine-3-carboxamide]
400 | O=C(NC1c2ccccc2Oc2ccc(F)cc21)c1ccc(C(F)(F)F)[nH]c1=O (stereo not shown) [Compound 150, N-(2-fluoro-9H-xanthen-9-yl)-2-oxo-6-(trifluoromethyl)-1,2-dihydropyridine-3-carboxamide]
1790 | O=C(NC1c2cc(Cl)ccc2Oc2ccc(Cl)cc21)c1ccc(C(F)(F)F)[nH]c1=O [Compound 153, N-(2,7-dichloro-9H-xanthen-9-yl)-2-oxo-6-(trifluoromethyl)-1,2-dihydropyridine-3-carboxamide]
460 | C=Cc1ccc2c(c1)C(NC(=O)c1ccc(C(F)(F)F)[nH]c1=O)c1ccccc1O2 (stereo not shown) [Compound 155, 2-oxo-6-(trifluoromethyl)-N-(2-vinyl-9H-xanthen-9-yl)-1,2-dihydropyridine-3-carboxamide]
360 | Cc1ccc2c(c1)C(NC(=O)c1ccc(C(F)(F)F)[nH]c1=O)c1cc(C)ccc1O2 [Compound 158, N-(2,7-dimethyl-9H-xanthen-9-yl)-2-oxo-6-(trifluoromethyl)-1,2-dihydropyridine-3-carboxamide]
600 | O=C(NC1c2ccccc2Oc2cccc(Cl)c21)c1ccc(C(F)(F)F)[nH]c1=O (stereo not shown) [Compound 159, N-(1-chloro-9H-xanthen-9-yl)-2-oxo-6-(trifluoromethyl)-1,2-dihydropyridine-3-carboxamide]
900 | Cc1ccc2c(c1)Oc1cccc(C)c1C2NC(=O)c1cc(C)c(C(F)(F)F)[nH]c1=O (stereo not shown) [Compound 164, N-(1,6-dimethyl-9H-xanthen-9-yl)-5-methyl-2-oxo-6-(trifluoromethyl)-1,2-dihydropyridine-3-carboxamide]
110 | Cc1cc(C(=O)NC2c3ccc(Cl)cc3Oc3cc(Cl)ccc32)c(=O)[nH]c1C(F)(F)F [Compound 165, N-(3,6-dichloro-9H-xanthen-9-yl)-5-methyl-2-oxo-6-(trifluoromethyl)-1,2-dihydropyridine-3-carboxamide]
60 | Cc1ccc2c(c1)Oc1cc(C)ccc1C2NC(=O)c1cc(C)c(C(F)(F)F)[nH]c1=O [Compound 166, N-(3,6-dimethyl-9H-xanthen-9-yl)-5-methyl-2-oxo-6-(trifluoromethyl)-1,2-dihydropyridine-3-carboxamide]
820 | CCc1cc(C(=O)NC2c3ccc(C)cc3Oc3cccc(C)c32)c(=O)[nH]c1C(F)(F)F (stereo not shown) [Compound 167, N-(1,6-dimethyl-9H-xanthen-9-yl)-5-ethyl-2-oxo-6-(trifluoromethyl)-1,2-dihydropyridine-3-carboxamide]

From patent US11957687B2 (REGENERON PHARMACEUTICALS, INC., priority 2019, dated 2024)
